ChEMBL document CHEMBL1201862, “PubChem BioAssay data set” (2004)
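Values below derive from 48-hour exposures of cells grown in 96-well plates, with endpoints linearly interpolated between the two concentrations bracketing the appropriate inhibition level. The concentration for 50% growth inhibition is given as GI50.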 Activity calls are given as the source filed them. Cut-off read from the data, not from the text of the source: active = GI50 up to about 1.1 µM and inactive = higher.

Experiments:
Assay in all cases: NCI tumour cell line growth inhibition, 48 h
IGROV-1 = tested on: IGROV-1
HT-29 = tested on: HT-29
MDA-MB-231 = tested on: MDA-MB-231
LOX IMVI = tested on: LOX IMVI
HOP-92 = tested on: HOP-92
HCT-116 = tested on: HCT-116
OVCAR-4 = tested on: OVCAR-4
EKVX = tested on: EKVX
OVCAR-8 = tested on: OVCAR-8
TK-10 = tested on: TK-10
RXF 393 = tested on: RXF 393
NCI-H522 = tested on: NCI-H522
A498 = tested on: A498
COLO 205 = tested on: COLO 205
SF-268 = tested on: SF-268
K562 = tested on: K562
HCC 2998 = tested on: HCC 2998
UO-31 = tested on: UO-31
SNB-19 = tested on: SNB-19

Measured: GI50

CN(/N=C\c1ccc2ccccc2c1)C1=NCCCN1
inactive: IGROV-1 4.56 µM | HT-29 12 µM | MDA-MB-231 15.6 µM | LOX IMVI 7.41 µM | HOP-92 2.11 µM | HCT-116 13.8 µM | OVCAR-4 26.5 µM | EKVX 17.3 µM | OVCAR-8 15.4 µM | TK-10 14 µM | RXF 393 14.3 µM | NCI-H522 13.8 µM | A498 13.6 µM | COLO 205 12.7 µM | SF-268 13.8 µM | K562 11.7 µM | HCC 2998 11.7 µM | UO-31 9.93 µM

O=C1CSC(c2cccc(Oc3ccccc3)c2)N1c1cccc(Cl)c1Cl (configuration not stated)
inactive: HT-29 22.4 µM | MDA-MB-231 22.3 µM | LOX IMVI 13.6 µM | HOP-92 12.3 µM | HCT-116 21.2 µM | OVCAR-4 23.2 µM | EKVX 25.2 µM | OVCAR-8 19.8 µM | TK-10 34.6 µM | RXF 393 57.1 µM | NCI-H522 20.7 µM | SNB-19 42.8 µM | A498 26.1 µM | COLO 205 20 µM | SF-268 23.6 µM | K562 20.4 µM | HCC 2998 12.3 µM | UO-31 36.9 µM

COc1ccc(-n2c(=O)c3nc[nH]c3n(-c3ccc(OC)cc3)c2=S)cc1
inactive: IGROV-1 > 100 µM | HT-29 > 100 µM | MDA-MB-231 > 100 µM | LOX IMVI > 100 µM | HOP-92 > 100 µM | HCT-116 > 100 µM | OVCAR-4 > 100 µM | EKVX > 100 µM | OVCAR-8 > 100 µM | TK-10 > 100 µM | RXF 393 > 100 µM | NCI-H522 17.7 µM | A498 > 100 µM | COLO 205 > 100 µM | SF-268 > 100 µM | K562 > 100 µM | HCC 2998 > 100 µM | UO-31 > 100 µM

NC(Cc1ccc(OCc2ccccc2)cn1)C(=O)OCc1ccccc1 (configuration not stated)
inactive: IGROV-1 > 100 µM | HT-29 > 100 µM | MDA-MB-231 > 100 µM | LOX IMVI > 100 µM | HOP-92 > 100 µM | HCT-116 > 100 µM | OVCAR-4 > 100 µM | EKVX > 100 µM | OVCAR-8 > 100 µM | TK-10 > 100 µM | RXF 393 > 100 µM | NCI-H522 > 100 µM | SNB-19 > 100 µM | A498 > 100 µM | COLO 205 > 100 µM | K562 > 100 µM | HCC 2998 52.4 µM | UO-31 > 100 µM
